Results: patent US8846351B2, “Compositions for enhancing hydroysis of cellulosic material by cellulolytic enzyme compositions” (Novozymes, Inc., priority 2010, dated 2014)
Like-named read-outs stand apart in the source and are kept apart here.

How the values were obtained:
[1] = target: T. aurantiacus GH61A polypeptide (Thermoascus aurantiacus, UniProt G3XAP7, N13Y); test: PACE analysis of products from PASC incubated with organic compound, Ca(II) and T. aurantiacus GH61A polypeptide at various pH; assay type: biochemical
Procedure: Polysaccharide-analysis-using-carbohydrate-gel-electrophoresis (PACE) was applied to analyze the products from incubation of cellulose in the presence of Ca(II) and ascorbate, cysteine or gallic acid and the T. aurantiacus GH61A polypeptide.
The mixture was filtered, and the filtrate (90 μl) was subjected to PACE analysis as described below. Buffers were varied to obtain the following pH values: formic acid at pH 4, acetic acid at pH 5, triethylammonium acetate at pH 6-7, and ammonium acetate at pH 8-9.
Carbohydrate products from the reaction were derivatized with 8-aminonaphthalene-1,3,6-trisulfonic acid (ANTS) fluorophore, applied to a polyacrylamide gel, and subjected to PACE, according to protocols adapted from (Goubet et al, 2002, Analytical Biochemistry 300: 53-68). Briefly, the derivatization was conducted by first drying 45 μl of the reaction products in a Jouan RC1010 vacuum concentrator system (Jouan Inc., Vallensbaekvej, Denmark) at 40° C. for about 3 hours, then mixing the dried products with 5 μl of 0.2 M ANTS in 15% acetic acid and 5 μl of 1 M NaBH3CN in DMSO, incubation at 37° C. in a thermomixer overnight followed by exposure to air for about 30 minutes, and then drying in a vacuum concentrator at 40° C. for about 4 hours. The ANTS-labeled samples were mixed with 20 μl of 6 M urea prior to PACE analysis.
Gels were cast according to Goubet et al., 2002, supra. The electrophoresis was performed with an SE 660 vertical electrophoresis system (GE Healthcare, Park Alle, Denmark) in a Tris/Borate buffer system at 200 V for 30 minutes and then at 1000 V for almost 2 hours at +5° C., followed by visualization using a UVP BioImaging System (UVP, LLC, Upland, Calif., USA) with UV transilluminator (Wavelength 365 nm UV-A) and EpiChem Darkroom combined with a camera system using a SYBR Gold™ emission filter (Syngene, Cambridge, United Kingdom).
Densitometry was performed by visual definition of a minimal space containing the band of interest, and integration of total pixel intensity within the space using a series of MatLab® scripts (The Mathworks, Natick, Mass., USA).

[2] = cited from earlier work
[3] = system: Trichoderma reesei cellulase composition; assay type: biochemical; settings: AVICEL, 1 mM organic compound
Procedure: Microcrystalline cellulose was used as the source of cellulosic material.
The concentration of each organic compound was 1 mM.

Sequence of T. aurantiacus GH61A polypeptide (G3XAP7 whole entry N13Y): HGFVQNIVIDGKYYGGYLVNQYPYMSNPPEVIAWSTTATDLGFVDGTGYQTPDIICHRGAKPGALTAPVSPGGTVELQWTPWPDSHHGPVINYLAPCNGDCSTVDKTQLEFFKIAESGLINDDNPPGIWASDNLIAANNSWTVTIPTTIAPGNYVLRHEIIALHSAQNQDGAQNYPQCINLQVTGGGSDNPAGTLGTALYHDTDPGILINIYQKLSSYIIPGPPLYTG

Row | organic compound effect(no GH61) ([3]; pH 5.0, 50° C., 7 days) | organic compound effect(no GH61) ([3]; pH 5.0, 50° C., 3 days) | Structure (SMILES) | further results
1 | greater than 1 |  | O=C(O)c1cc(O)cc(O)c1 [3,5-dihydroxybenzoic acid] | 
2 | 0.947±0.00189 | 0.989±0.0121 | COC(=O)c1cc(O)c(O)c(O)c1 [methyl-3,4,5-trihydroxybenzoate] | 
3 | 0.735±0.00518 |  | Oc1cccc(O)c1O [pyrogallol] | 

Continued, compound first:

Row | Structure (SMILES) | organic compound effect(no GH61) ([3]; pH 5.0, 50° C., 7 days) | organic compound effect(no GH61) ([3]; pH 5.0, 50° C., 3 days) | further results
4 | O=C(O)c1cc(O)c(O)c(O)c1 [gallic acid] |  |  | PACE band intensity as a function of pH (densitometry) ([1]; cellodextrin bands of apparent DP 4, 8 and 9): increased in intensity with increasing pH; PACE product bands at low pH ([1]; lowest pH examined, 3.9): near zero; shape of the increase of PACE band intensity with pH ([1]; pH range about 3.9 to 5.6): sharp increase in product intensity was noted between pH values of 4.5 and 5.5; pKa [2]: 4.5
5 | N[C@@H](CS)C(=O)O [cysteine] |  |  | products detected on PACE ([1]; PASC, Ca(II), GH61A polypeptide, 50° C., pH at or above the pKa of the compound): products similar to cellodextrins having 1-7 glucosyl units were detected
6 | COC(=O)c1ccc(O)cc1 [methyl-4-hydroxybenzoate] |  |  | organic compound effect(no GH61) ([3]; time not specified (FIG. 1: 3 and 7 days)): slightly inhibited
7 | Oc1ccccc1O [pyrocatechol] | 0.766±0.0361 |  | 
8 | O=C1OC(C(O)CO)C(=O)C1=O (stereo not shown) [dehydroascorbate] | 1.14±0.00522 | 1.05±0.0058 | 
9 | N[C@@H](CCC(=O)O)C(=O)O [glutamic acid] | above 1 | below 1 | 
10 | O=C(O)c1ccc(O)cc1 [4-hydroxybenzoic acid] | 0.961±0.0250 | 0.959±0.0162 | 
11 | O=C(O)C(O)C(O)C(=O)O (stereo not shown) [tartrate] | below 1 | below 1 | 
12 | COc1cc(C=CC(=O)O)ccc1O [4-hydroxy-3-methoxycinnamic acid] | approximately 1 | below 1 | 
13 | O=C(O)c1ccc(O)c(O)c1 [3,4-dihydroxybenzoic acid] | 0.977±0.0208 |  | 
